Converted amounts (≈) assume the structure as drawn.
Assays:
[1] = tested on: S. aureus (ATCC 29213); assay: MIC, serial broth dilution; assay type: cell-based, Staphylococcus aureus; details: for MIC S. aureus (ATCC 29213): MHB, 18 h, 37° C.
Experimental: (§1) The peptidomimetics designed in present invention were evaluated as antibacterial therapeutics against a broad range of bacterial strains by broth microdilution method. The antibacterial activity of the peptidomimetics was reported in terms of the minimum inhibitory concentrations (MIC).
(§2) Following bacterial strains were used in this study: S. aureus (ATCC 29213), methicillin resistant S. aureus (ATCC 33591), Staphylococcus epidermidis (ATCC 12228), methicillin resistant Staphylococcus epidermidis(ATCC 51625), Enterococcus faecalis (ATCC 7080), Escherichia coli (ATCC 11775), and Acinetobacter baumannii (ATCC 19606). Antibacterial activity was evaluated using a modified serial broth dilution method in accordance with Clinical Laboratory Standard Institute guidelines [Methods for dilution antimicrobial susceptibility tests for bacteria that grow aerobically-7th ed. Approved standard M7-A7. Clinical and Laboratory Standards Institute, Wayne, Pa., Biochim. Biophys. Acta 1798:1864-1875, 2010.]. Briefly, the inoculums were prepared from mid-log phase bacterial cultures. Peptidomimetics were incubated with bacterial suspension in Muller Hinton broth media (10^5 CFU/mL) in 96 well microtitre plate. The plates were incubated overnight with agitation (200 rpm) at 37° C. After 18 h, absorbance was measured at 630 nm. Cultures without test peptidomimetics were used as positive control. Un-inoculated Mueller Hinton Broth (MHB) was used as negative control. Tests were carried out in duplicate on at least three different days. […] For comparison standard peptide antibiotics vancomycin (VAN) and polymyxin B (PMB) were also assayed under identical conditions (Table 2). […] Further, antibacterial activity of active peptidomimetics 1c and 1d were also evaluated against MRSA in presence of 25% v/v human serum as well as bovine serum.

[2] = tested on: methicillin resistant S. aureus (ATCC 33591); assay: MIC, serial broth dilution; assay type: cell-based, Staphylococcus aureus; details: 18 h; for MIC MRSA (ATCC 33591): MHB, 37° C.
Experimental: as §1, §2

[3] = tested on: Enterococcus faecalis (ATCC 7080); assay: MIC, serial broth dilution; assay type: cell-based; details: MHB, 18 h, 37° C.
Experimental: as §1, §2

[4] = tested on: Staphylococcus epidermidis (ATCC 12228); assay: MIC, serial broth dilution; assay type: cell-based; details: for MIC S. epidermidis (ATCC 12228): MHB, 18 h, 37° C.
Experimental: as §1, §2

[5] = tested on: human red blood cells (hRBC); assay: Hemolytic activity; assay type: cell-based; details: 250 μg/mL, 1 h at 37° C.
Experimental: Hemolytic activity of the peptidomimetics was evaluated on human red blood cells (hRBC) as described previously with minor modifications [FEBS J, 273:4040-4054, 2006; Biochim Biophys Acta., 1798:1864-1875, 2010]. Briefly, 100 μL of fresh hRBC suspension 4% v/v in NaCl/Pi (35 mM phosphate buffer, 150 mM NaCl, pH 7.2) was placed in a 96-well plate. After incubation of the peptidomimetics (100 μL) in the hRBC suspension for 1 h at 37° C., the plates were centrifuged and supernatant (100 μL) was transferred to fresh 96-well plate. Absorbance was read at 540 nm using ELISA plate reader (Molecular Devices). Percent hemolysis was calculated using the following formula: % hemolysis=100[(A−A0)/(At−A0)]
Where, A represents absorbance of sample wells at 540 nm. Also A0 and At represents 0% and 100% hemolysis determined in NaCl/Pi and 1% Triton X-100, respectively (Table 2). […] Peptidomimetics 1e and 1f caused 31% and 30% hemolysis at 250 μg/mL. Peptidomimetics 2d, 2e and 2f caused significant hemolysis with 83%, 96% and 88% damage to hRBCs at […] respectively.

[6] = tested on: Gram-positive bacterial strains; assay: Antibacterial activity; assay type: cell-based
Experimental: as §2

[7] = tested on: MRSA; assay: Membrane depolarization with DiSC3(5) dye; assay type: cell-based, Staphylococcus aureus; details: up to the highest concentration tested
Experimental: For determination of membrane depolarizing ability of designed peptidomimetics, a membrane potential sensitive dye DiSC3(5) was used as described previously with minor modifications [Org Biomol. Chem. 10: 8326-8335, 2012; J. Am. Chem. Soc., 132: 18417-18428, 2010.]. Briefly, overnight grown MRSA was sub cultured into MHB for 2-3 h at 37° C. to obtain mid-log phase cultures. The cells were centrifuged at 4000 rpm for 10 min at 25° C., washed, and re-suspended into respiration buffer (5 mM HEPES, 20 mM glucose, pH 7.4) to obtain a diluted suspension of OD600˜0.05. Then DiSC3(5) [0.18 μM in DMSO], was added to 500 μL aliquotes of the re-suspended cells and allowed to stabilize for 1 h. Baseline fluorescence was acquired using a Edinburg F900 spectrofluorometer by excitation at 622 nm and emission at 670 nm in a 1 cm path length cuvette. Bandwidth of 5 nm was employed for excitation and emission. Subsequently, increasing concentrations of test peptidomimetics were added to the stabilized cells and the increase of fluorescence on account of the de-quenching of DiSC3(5) dye was measured after every 2 min to obtain the maximal depolarization. Increase in relative fluorescence unit (RFU) was plotted against increasing concentrations of different peptidomimetics or PMB. […] The increase in fluorescence for lipid tagged peptidomimetics was concentration dependent up to 9.9 μg/mL and henceforth, got saturated resulting into plateau like dose response curves. The experiment was repeated twice on two consecutive days and produced similar results.

[8] = tested on: Acinetobacter baumannii (ATCC 19606); assay: MIC, serial broth dilution; assay type: cell-based
Experimental: as §1, §2

[9] = tested on: methicillin resistant Staphylococcus epidermidis (ATCC 51625); assay: MIC, serial broth dilution; assay type: cell-based; details: 18 h; for MIC MRSE (ATCC 51625): MHB, 37° C.
Experimental: as §1, §2

[10] = tested on: Escherichia coli (ATCC 11775); assay: MIC, serial broth dilution; assay type: cell-based; parameters: MIC E. coli. (ATCC 11775): unit not given here; details: for MIC E. coli. (ATCC 11775): MHB, 18 h, 37° C.
Experimental: as §1, §2

[11] = tested on: Gram-negative bacterial strains; assay: Antibacterial activity; assay type: cell-based
Experimental: as §2

[12] = tested on: Staphylococcus species; assay: Antibacterial activity; assay type: cell-based
Experimental: as §2

[13] = tested on: S. aureus (ATCC 33591); assay: Resistance development study, serial passage at sub MIC; assay type: cell-based, Staphylococcus aureus; details: 17 serial passages at sub MIC
Experimental: FIG. 5: Illustration of resistance development study in S. aureus (ATCC 33591) after 17 serial passages with sub MIC of 1c/1d or antibiotic treatment. The fold change in MIC is the ratio of the MIC after 17 passages relative to that MIC observed before first passage.
To determine potential of active peptidomimetics against resistance development, in vitro serial passage method at sub inhibitory concentration was done. Briefly, bacterial suspension (100 μL) from duplicate wells at the concentration of sub-MIC was used to inoculate fresh culture. The culture was grown to obtain approximately 10^5 CFU/mL for the next experiment. These bacterial suspensions were then incubated with desired concentration of antibacterial agents for 18 h to determine new MIC. The same sub culturing protocol was used for next 16 passages and MIC was determined using OD630 nm as described previously in the text [Chem. Biol., 20:1286-1295, 2013.]

[14] = tested on: MRSA (ATCC 33591); assay: Planktonic MIC in biofilm media (MICb); assay type: cell-based, Staphylococcus aureus; details: TSB with 0.5% NaCl and 0.25% glucose
[15] = tested on: MRSA (ATCC 33591) biofilm; assay: 24 h preformed mature biofilm (alamar blue, crystal violet); assay type: cell-based, Staphylococcus aureus; details: Staphylococcus aureus, 24 h, read-out: viable cells in 24 h pre-formed mature biofilm (alamar blue)
Experimental: To evaluate potential of designed active peptidomimetics against MRSA biofilms a methodology as used previously was employed with minor modifications [Antimicrob. Agents Chemother., 57:2726-2737, 2013]. Briefly, freshly inoculated MRSA (ATCC 33591) was grown in biofilm growth media (TSB supplemented with 0.5% w/v NaCl and 0.25% w/v glucose) overnight. Next day, the culture was diluted in fresh biofilm growth media to 10^5 CFU/mL. 200 μl of diluted culture was dispensed in wells of a 96-well polystyrene plate for biofilm formation. […] Biofilm cultures were re-incubated at 37° C. for 24 h. After removal of medium, the biofilms were further washed twice with sterile NaCl/Pi buffer and assessed for metabolic activity (alamar blue assay) and biomass quantification (Crystal violet assay).

[16] = tested on: MRSA (ATCC 33591) biofilm; assay: Confocal laser scanning microscopy of biofilm, thickness by z-stacking; assay type: cell-based, Staphylococcus aureus; details: for confocal observation of mature biofilm: 24 h preformed biofilm
Description: For visualization of biofilm and validation of AB and CV assay we performed confocal microscopy. For this biofilm formation was induced on glass cover slips in a 6-well plate. The biofilm on cover slips were washed twice with sterile NaCl/Pi buffer and stained with a Live/Dead kit reagent (Invitrogen, Molecular Probes, Eugene, Oreg., USA) following the manufacturer's instructions. This stain contains DNA binding dyes SYTO 9 (green fluorescent) and propidium iodide (PI; red fluorescent). When used alone, SYTO 9 stains all bacteria in a population, those with intact as well as damaged membranes. In contrast, PI penetrates only bacteria with damaged membranes, causing a reduction in the SYTO 9 stain (green fluorescence). The biofilms were examined with an Olympus flow view FV1000 (confocal laser scanning microscope, CLSM). The experiment was repeated three times on three different days and representative data is presented here.
We next measured the thickness of biofilm using z-stacking in confocal microscopy. […] At MICb, 1c and 1d prevented formation of biofilm in which very few cells were adhered to substratum with observed average thickness of 3.9±1.1 μm and 3.5±0.6 μm, respectively. Furthermore, at sub-MICb concentration the observed thicknesses were 5.2±0.3 μm and 5.8±0.4 μm (FIG. 7A.b and FIG. 7A.d).

[17] = tested on: all the tested strains; assay: Antibacterial activity; assay type: cell-based; details: series 2
Experimental: as §2

| Compound | MIC S. aureus (ATCC 29213) [1] [µg/mL] | MIC MRSA (ATCC 33591) [2] [µg/mL] | MIC E. facaelis (ATCC 7080) [3] [µg/mL] | MIC S. epidermidis (ATCC 12228) [4] [µg/mL] | % H, percentage hemolysis of human RBCs [5] [%] | change in relative fluorescence unit (RFU), membrane depolarization [7] | growth inhibition of Gram-negative bacterial strains [11] | activity against Staphylococcus species [12] | MIC MRSE (ATCC 51625) [9] [µg/mL] | MIC E. coli. (ATCC 11775) [10] | also measured |
| --- | --- | --- | --- | --- | --- | --- | --- | --- | --- | --- | --- |
| NCCCNCCCCNCCCNC(=O)C(Cc1c[nH]c2ccccc12)NC(=O)C(N)Cc1c[nH]c2ccccc12 (stereo not drawn) [1a] | 0.1136 (≈ 0.198 µM) | 227.2 (≈ 395 µM) | 0.4545 (≈ 0.791 µM) | 113.6 (≈ 198 µM) | 4 | only minor increase |  |  |  |  | activity against Gram-positive bacterial strains [6]: moderate activity |
| CN[C@H](CC(C)C)C(=O)N[C@H]1C(=O)N[C@@H](CC(N)=O)C(=O)N[C@H]2C(=O)N[C@H]3C(=O)N[C@H](C(=O)N[C@H](C(=O)O)c4cc(O)cc(O)c4-c4cc3ccc4O)[C@H](O)c3ccc(c(Cl)c3)Oc3cc2cc(c3O[C@@H]2O[C@H](CO)[C@@H](O)[C@H](O)[C@H]2O[C@H]2C[C@](C)(N)[C@H](O)[C@H](C)O2)Oc2ccc(cc2Cl)[C@H]1O [VAN, vancomycin, reference compound] |  |  |  |  |  |  | ineffective | potent growth inhibition |  |  | MIC ([1]; Staphylococcus aureus, ATCC29213, 18 h, read-out: MIC S. aureus (ATCC 29213)): 0.0004 µg/mL (≈ 0.000276 µM); MIC ([2]; Staphylococcus aureus, ATCC 33591 / MRSA, read-out: MIC MRSA (ATCC 33591)): 0.0008 µg/mL (≈ 0.000552 µM); MIC ([8]; Acinetobacter baumannii, ATCC19606, 18 h, read-out: MIC A. baumannii (ATCC 19606)): 0.0568 µg/mL (≈ 0.0392 µM); MIC ([4]; Staphylococcus epidermidis, ATCC12228, 18 h, read-out: MIC S. epidermidis (ATCC 12228)): 0.0004 µg/mL (≈ 0.000276 µM); MIC ([9]; Staphylococcus epidermidis, ATCC 51625 / MRSE, read-out: MIC MRSE (ATCC 51625)): 0.0008 µg/mL (≈ 0.000552 µM); MIC ([10]; Escherichia coli, ATCC11775, 18 h, read-out: MIC E. coli. (ATCC 11775)): 0.114 µg/mL (≈ 0.0784 µM); increase in MIC after 17 passages [13]: 4 fold; MICb, planktonic MIC in biofilm media [14]: 0.8 µg/mL; viability at 20 µg/mL [15]: 77.7 ± 7%; confocal observation of mature biofilm ([16]; 10×MICb): little effect; confocal observation of mature biofilm ([16]; 20×MICb): slight decrease in the height of mature biofilm; average thickness of biofilm, biofilm formation ([16]; MICb, control 14.3±1.4 μm): 11.4±2.9 μm; thickness of biofilm, biofilm formation ([16]; sub-MICb, control 14.3±1.4 μm): unable to reduce biofilm thickness |
| polymyxin B [PMB, reference compound] | 0.0142 | 28.4 | 0.1136 | 7.1 |  |  | excellent growth inhibition | relatively poor activity | 0.0284 | 0.4 |  |
| NCCCN(CCCCN(CCCNC(=O)Cc1ccc(C(F)(F)F)cc1)C(=O)C(N)Cc1c[nH]c2ccccc12)C(=O)C(N)Cc1c[nH]c2ccccc12 (stereo not drawn) [2c] | 0.0142 (≈ 0.0187 µM) | 28.4 (≈ 37.3 µM) |  | 7.1 (≈ 9.33 µM) | 1 | only marginal changes in RFU |  |  | 0.0142 (≈ 0.0187 µM) | 113.6 | MIC A. baumannii (ATCC 19606) ([8]; MHB, 18 h, 37° C.): 0.1136 µg/mL (≈ 0.149 µM); antibacterial activity [17]: moderate activity |

— US9738684B2, “N-terminally modified linear and branched polyamine conjugated peptidomimetics as antimicrobials agents” (COUNCIL OF SCIENTIFIC & INDUSTRIAL RESEARCH, priority 2015, dated 2017)
